Where two headings read alike, the source gives them in different places. Blank lines part the entries; values can stand above or below the compound they belong to.
Columns and labels:
[1] = Authors' study / animal trial: half-life from terminal slope of plasma concentration versus time profile; assay type: in vivo; conditions: cattle, intramuscular
Procedure: Literature has reported a half-life for cloprostenol of around 90 minutes, with a maximum concentration reached at around 10 to 20 minutes after administration.
The inventors have also used various models to describe the absorption kinetics of cloprostenol. The most recent model was to describe the release from SAIB formulations as occurring as a burst of some percentage of the dose followed by a rate of release proportional to the square root of time. In an animal trial, the inventors calculated the terminal slope of the plasma concentration versus time profile. If absorption is very rapid—ie. as from standard cloprostenol injection, Ovuprost™, this terminal slope is related to the elimination half-life of the cloprostenol. The inventors found this half-life to be 1 hour. The literature reports the elimination half-life of cloprostenol to be 1.5-3 hours. If absorption is slow, the terminal slope relates to the absorption rate of the cloprostenol from the injection.
In cattle, the conventional intramuscular injected dose of natural PGF2α is 25 mg whereas the intramuscular injected dose of cloprostenol in 0.5 mg. PGF2α has a half-life of about 8-10 minutes whereas the cloprostenol half-life is from around 1 hour as determined by the authors' study and reported elsewhere as 1.5-3 hours.

[2] = Titration of cloprostenol sodium with calcium or zinc salts, cloprostenol in supernatant by HPLC; assay type: physicochemical
Procedure: Water-insoluble salts of cloprostenol were investigated as a means of prolonging release of cloprostenol after administration. Solutions of cloprostenol sodium were titrated with calcium chloride, zinc chloride or zinc acetate solutions. The resulting mixtures were vortexed, left to stand overnight then observed for precipitation possibly due to formation of an insoluble salt. Samples with a visible precipitate were centrifuged at 15000 rpm for 5 min and the supernatant was then removed for analysis of cloprostenol by validated HPLC.

[3] = Chemical stability of cloprostenol in ethanol and Transcutol; assay type: physicochemical; conditions: 40° C., 4 days, HPLC
Procedure: The chemical stability of cloprostenol was tested in ethanol and Transcutol. A cloprostenol solution (1 mg/ml) was prepared in each solvent and stored in at 40° C. for 4 days. The solutions were then removed and injected into HPLC for cloprostenol quantification and the chromatogram inspected for the formation of new (degradation) peaks. Cloprostenol in solution in ethanol and Transcutol at 40° C. was stable for the 4 days tested. […] There were no degradation peaks in the chromatograms.

[4] = literature; cited from earlier work
physchem = assay type: physicochemical; conditions: for solubility: water, water solubility
Procedure: Water-in-oil (w/o) emulsions of cloprostenol sodium were investigated for use as sustained release compositions of cloprostenol. […] In aqueous solution cloprostenol sodium micellises at concentrations around 5-10 mg/ml. The minimum quantity of water to dissolve a 3 mg dose of cloprostenol (as the sodium salt) is around 0.1 ml. Accordingly, a target volume of 2 ml of water-in-oil emulsion requires a minimum proportion of around 5% water to incorporate a 3 mg dose of cloprostenol.

- half-life ([1]; Holstein, 0.5 mg, very rapid absorption, standard cloprostenol injection, read-out: half-life (terminal slope, elimination) (converted)): ~60 min
- half-life ([1]; 0.5 mg cloprostenol as the sodium salt in a fast-release aqueous composition, read-out: estimated half-life of cloprostenol in plasma): 15 to 60 min
- cloprostenol still contained in supernatant at best yield of precipitate ([2]; zinc acetate): around 50%
- cloprostenol still contained in supernatant at best yield of precipitate ([2]; zinc chloride as counter cation): around 74%
- measured drug content ([3]; 1 mg/ml in Transcutol): 102%
- measured drug content ([3]; 1 mg/ml in ethanol): 101%
Compound: O=C(O)CCC/C=C\CC1C(O)CC(O)C1/C=C/C(O)COc1cccc(Cl)c1 (stereo not drawn) [cloprostenol]
- elimination half-life of cloprostenol [4]: 1.5 to 3 h
- half-life for cloprostenol [4]: around 90 minutes

- concentration at which it micellises in aqueous solution (physchem): 5 to 10 mg/mL
- solubility (physchem): > 10 mg/mL
- solubility (physchem; estimated): ~35 mg/mL
Compound: O=C(O)CCC/C=C\CC1C(O)CC(O)C1/C=C/C(O)COc1cccc(Cl)c1 (stereo not drawn) [cloprostenol sodium]

- solubility of the calcium salt ([2]; titration with calcium chloride, mixtures remained apparently clear): good solubility
Compound: O=C([O-])CCCC=CCC1C(O)CC(O)C1C=CC(O)COc1cccc(Cl)c1.O=C([O-])CCCC=CCC1C(O)CC(O)C1C=CC(O)COc1cccc(Cl)c1.[Ca+2] (stereo not drawn) [calcium cloprostenol]
